Results taken from patent US9951052B2, “Inhibitors of the renal outer medullary potassium channel” (Merck Sharp & Dohme Corp., priority 2013, dated 2018).
Where a name gives a salt, the structure may show the parent alone.

target: T1, hROMK (hKir1.1) (Homo sapiens, UniProt P48048); experiment: Thallium Flux Assay (ROMK channel functional thallium flux, FLIPR-Tetra); type: cell-based; details: HEK293 cells stably expressing hROMK (hKir1.1); 30 min incubation with compound; HCl salt run where final product was an HCl salt
T1 construct: expressed in transfected cells
T1 sequence (P48048 1-391): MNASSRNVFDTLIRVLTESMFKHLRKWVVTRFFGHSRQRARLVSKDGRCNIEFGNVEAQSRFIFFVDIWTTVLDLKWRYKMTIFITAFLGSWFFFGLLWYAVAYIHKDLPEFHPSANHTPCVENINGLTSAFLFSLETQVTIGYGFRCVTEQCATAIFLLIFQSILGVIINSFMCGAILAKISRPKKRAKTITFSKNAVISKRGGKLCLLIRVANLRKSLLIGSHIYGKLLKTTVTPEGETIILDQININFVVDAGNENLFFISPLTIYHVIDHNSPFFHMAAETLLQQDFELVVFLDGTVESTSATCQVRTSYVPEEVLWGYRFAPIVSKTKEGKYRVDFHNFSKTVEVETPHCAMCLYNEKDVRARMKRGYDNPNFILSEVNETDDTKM
Method: The following Thallium Flux Assay was performed on each of the final product compounds in the Examples. When the final product of an Example was an HCl salt, the salt was run in the Assay.
Cell Culture Conditions—HEK293 cells stably expressing hROMK (hKir1.1) were grown at 37° C. in a 10% CO2 humidified incubator in complete growth media: Dulbecco's Modified Eagle Medium supplemented with non-essential amino acids, Penicillin/Streptomycin/Glutamine, G418 and FBS. At >80% confluency, aspirate the media from the flask and rinse with 10 mL Calcium/Magnesium-free PBS. Add 5 mL of 1× trypsin (prepared in Ca/Mg Free PBS) to T-225 flask and return flask to 37° C./CO2 incubator for 2-3 minutes. To dislodge the cell, gently bang the side of the flask with your hand. Triturate the cells completely and then transfer the cells to 25 mL complete media. Centrifuge at 1,500 rpm for 6 min followed by resuspension in complete growth media and determine cell concentration. For typical re-seeding, 4E6 cells/T-225 flask will attain >80% confluency in 4 days. Under ideal growth conditions and appropriate tissue culture practices, this cell line is stable for 40-45 passages.
FluxOR Kit Components (Invitrogen F10017)
• FluxOR™ Reagent (Component A) • FluxOR™ Assay Buffer (Component B)—10× Concentrate • PowerLoad™ Concentrate (Component C)—100× Concentrate • Probenecid (Component D)—Lyophilized sample is kept at −20° C. Water soluble, 100× after solubilization in 1 mL water. Store at 4° C. • FluxOR™ Chloride-free Buffer (Component E)—5× Concentrate • Potassium sulfate (K2SO4) Concentrate (Component F)—125 mM in water. Store at 4° C. • Thallium sulfate (T12SO4) Concentrate (Component G)—50 mM in water. Store at 4° C. • DMSO (dimethyl sulfoxide, Component H)—1 mL (100%) Reagent Preparation: FluxOR Working Solutions • 1000× FluxOR™ Reagent: Reconstitute a vial of component A in 100 μl DMSO; Mix well; Store 10 μl aliquots at −20° C. • 1× FluxOR™ Assay Buffer: Dilute Component B 10-fold with water; Adjust pH to 7.4 with Hepes/NaOH; Filter and store at 4° C. • Probenecid/Assay Buffer: 100 mL of 1× FluxOR™ Assay Buffer; 1 mL of reconstituted component D; Store at 4° C. • Loading Buffer (per microplate): 10 μl 1000× FluxOR™ Reagent; 100 μl component C; 10 mL Probenecid/Assay Buffer • Compound Buffer (per microplate): 20 mL Probenecid/Assay Buffer; 0.3 mM ouabain (10 mM ouabain in water can be stored in amber bottle/aluminum foil at room temperature); Test compound • 1× FluxOR™ Chloride-Free Buffer: Prepare 1× working solution in water. Can be stored at room temperature • Stimulant Buffer (prepared at 5× final concentration in 1× FluxOR™ Chloride-Free Buffer): 7.5 mM Thallium sulfate and 0.75 mM Potassium sulfate (to give a final assay concentration of 3 mM Thallium/0.3 mM Potassium). Store at 4° C. when not in use.
Assay protocol—The ROMK channel functional thallium flux assay is performed in 384 wells, using the FLIPR-Tetra instrument. HEK-hKir1.1 cells are seeded in Poly-D-Lysine microplates and kept in a 37° C.-10% CO2 incubator overnight. On the day of the experiment, the growth media is replaced with the FluxOR™ reagent loading buffer and incubated, protected from light, at ambient temperature (23-25° C.) for 90 min. The loading buffer is replaced with assay buffer±test compound followed by 30 min incubation at ambient temperature, where the Thallium/Potassium stimulant is added to the microplate.
• 1. Seed HEK-hKir1.1 cells (50 μl at 20,000 cells/well) in 384-well PDL coated Microplates • 2. Allow cells to adhere overnight in humidified 37° C./10% CO2 incubator • 3. Completely remove cell growth media from microplate and replace with 25 μl loading buffer • 4. Incubate Microplate at room temperature, protected from light, for 90 min • 5. Remove loading buffer and replace with 25 μl 1× Assay Buffer±test compound. • 6. Incubate microplate at room temperature, protected from light, for 30 min • 7. […]

Row | Structure (SMILES) | IC50
1 | COc1nsc(N(C)C(=O)C2CCN(C[C@H](O)c3ccc4c(c3C)COC4=O)CC2)n1 [Example 45, (R)-1-(2-hydroxy-2-(4-methyl-1-oxo-1,3-dihydroisobenzofuran-5-yl)ethyl)-N-(3-methoxy-1,2,4-thiadiazol-5-yl)-N-methylpiperidine-4-carboxamide] | 250 nM
2 | Cc1c([C@@H](O)CN2CCC(N)(C(=O)Nc3ccns3)CC2)ccc2c1COC2=O [Example 46, 4-amino-1-[(2R)-2-hydroxy-2-(4-methyl-1-oxo-1,3-dihydro-2-benzofuran-5-yl)ethyl]-N-(isothiazol-5-yl)piperidine-4-carboxamide hydrochloride] | 50 nM
3 | Cc1c([C@@H](O)CN2CCC(F)(C(=O)Nc3ccns3)CC2)ccc2c1COC2=O [Example 47, 4-fluoro-1-[(2R)-2-hydroxy-2-(4-methyl-1-oxo-1,3-dihydro-2-benzofuran-5-yl)ethyl]-N-(isothiazol-5-yl)piperidine-4-carboxamide] | 60 nM
4 | Cc1cc(NC(=O)C2(F)CCN(C[C@H](O)c3ccc4c(c3C)COC4=O)CC2)sn1 [Example 48, (R)-4-fluoro-1-(2-hydroxy-2-(4-methyl-1-oxo-1,3-dihydroisobenzofuran-5-yl)ethyl)-N-(3-methylisothiazol-5-yl)piperidine-4-carboxamide] | 40 nM
5 | Cc1c([C@@H](O)CN2CCC(F)(C(=O)N3CCc4cnccc43)CC2)ccc2c1COC2=O [Example 49, (R)-5-(2-(4-(2,3-dihydro-1H-pyrrolo[3,2-c]pyridine-1-carbonyl)-4-fluoropiperidin-1-yl)-1-hydroxyethyl)-4-methylisobenzofuran-1(3H)-one] | 200 nM
6 | Cc1c([C@@H](O)CN2CCC(F)(C(=O)Nc3cnsc3)CC2)ccc2c1COC2=O [Example 50, (R)-4-fluoro-1-(2-hydroxy-2-(4-methyl-1-oxo-1,3-dihydroisobenzofuran-5-yl)ethyl)-N-(isothiazol-4-yl)piperidine-4-carboxamide] | 370 nM
7 | Cc1nc(NC(=O)C2(F)CCN(C[C@H](O)c3ccc4c(c3C)COC4=O)CC2)ccc1C#N [Example 51, (R)-N-(5-cyano-6-methylpyridin-2-yl)-4-fluoro-1-(2-hydroxy-2-(4-methyl-1-oxo-1,3-dihydroisobenzofuran-5-yl)ethyl)piperidine-4-carboxamide] | 220 nM
8 | Cc1c([C@@H](O)CN2CCC(F)(C(=O)Nc3ccc(C#N)cn3)CC2)ccc2c1COC2=O [Example 52, (R)-N-(5-cyanopyridin-2-yl)-4-fluoro-1-(2-hydroxy-2-(4-methyl-1-oxo-1,3-dihydroisobenzofuran-5-yl)ethyl)piperidine-4-carboxamide] | 260 nM
9 | Cc1c([C@@H](O)CN2CCC(F)(C(=O)Nc3cnns3)CC2)ccc2c1COC2=O [Example 53, (R)-4-fluoro-1-(2-hydroxy-2-(4-methyl-1-oxo-1,3-dihydroisobenzofuran-5-yl)ethyl)-N-(1,2,3-thiadiazol-5-yl)piperidine-4-carboxamide] | 260 nM
10 | Cc1c([C@@H](O)CN2CC3C(C2)C3C(=O)Nc2ccns2)ccc2c1COC2=O (stereo partly drawn) [Example 54, 3-[(2R)-2-hydroxy-2-(4-methyl-1-oxo-1,3-dihydro-2-benzofuran-5-yl)ethyl]-N-(isothiazol-5-yl)-3-azabicyclo[3.1.0]hexane-6-carboxamide] | 160 nM

Second part, the compound after the results:

Row | IC50 | Structure (SMILES)
11 | 60 nM | Cc1cc(NC(=O)C2C3CN(C[C@H](O)c4ccc5c(c4C)COC5=O)CC32)sn1 (stereo partly drawn) [Example 55, 3-((R)-2-hydroxy-2-(4-methyl-1-oxo-1,3-dihydroisobenzofuran-5-yl)ethyl)-N-(3-methylisothiazol-5-yl)-3-azabicyclo[3.1.0]hexane-6-carboxamide]
12 | 350 nM | Cc1nsc(NC(=O)C2C3CN(C[C@H](O)c4ccc5c(c4C)COC5=O)CC32)n1 (stereo partly drawn) [Example 56, 3-((R)-2-hydroxy-2-(4-methyl-1-oxo-1,3-dihydroisobenzofuran-5-yl)ethyl)-N-(3-methyl-1,2,4-thiadiazol-5-yl)-3-azabicyclo[3.1.0]hexane-6-carboxamide]
13 | 310 nM | COc1nsc(NC(=O)C2C3CN(C[C@H](O)c4ccc5c(c4C)COC5=O)CC32)n1 (stereo partly drawn) [Example 57, 3-((R)-2-hydroxy-2-(4-methyl-1-oxo-1,3-dihydroisobenzofuran-5-yl)ethyl)-N-(3-methoxy-1,2,4-thiadiazol-5-yl)-3-azabicyclo[3.1.0]hexane-6=carboxamide]
14 | 280 nM | Cc1c([C@@H](O)CN2CC3C(C2)C3C(=O)Nc2cnsc2)ccc2c1COC2=O (stereo partly drawn) [Example 58, 3-((R)-2-hydroxy-2-(4-methyl-1-oxo-1,3-dihydroisobenzofuran-5-yl)ethyl)-N-(isothiazol-4-yl)-3-azabicyclo[3.1.0]hexane-6-carboxamide]
15 | 400 nM | Cc1c([C@@H](O)CN2CC3C(C2)C3C(=O)Nc2ccc(C#N)cn2)ccc2c1COC2=O (stereo partly drawn) [Example 59, N-(5-cyanopyridin-2-yl)-3-((R)-2-hydroxy-2-(4-methyl-1-oxo-1,3-dihydroisobenzofuran-5-yl)ethyl)-3-azabicyclo[3.1.0]hexane-6-carboxamide]
16 | 470 nM | Cc1c([C@@H](O)CN2CC3C(C2)C3C(=O)Nc2ccc(-n3cnnn3)cn2)ccc2c1COC2=O (stereo partly drawn) [Example 60, N-(5-(1H-tetrazol-1-yl)pyridin-2-yl)-3-((R)-2-hydroxy-2-(4-methyl-1-oxo-1,3-dihydroisobenzofuran-5-yl)ethyl)-3-azabicyclo[3.1.0]hexane-6-carboxamide]
17 | 140 nM | Cc1c([C@@H](O)CN2CC3C(C2)C3C(=O)N(C)c2ccns2)ccc2c1COC2=O (stereo partly drawn) [Example 61, 3-((R)-2-hydroxy-2-(4-methyl-1-oxo-1,3-dihydroisobenzofuran-5-yl)ethyl)-N-(isothiazol-5-yl)-N-methyl-3-azabicyclo[3.1.0]hexane-6-carboxamide]
18 | 170 nM | Cc1nsc(N(C)C(=O)C2C3CN(C[C@H](O)c4ccc5c(c4C)COC5=O)CC32)n1 (stereo partly drawn) [Example 62, 3-((R)-2-hydroxy-2-(4-methyl-1-oxo-1,3-dihydroisobenzofuran-5-yl)ethyl)-N-methyl-N-(3-methyl-1,2,4-thiadiazol-5-yl)-3-azabicyclo[3.1.0]hexane-6-carboxamide]
